Read-outs that look alike come from different tables or passages of the source.
Experiments:
[1] = in vitro; details: African green monkey
[2] = in vitro; details: human
[3] = tested on: Huh7 cells
[4] = in vitro; details: human; remark: listed apart in the source
[5] = tested on: SARS-CoV-2 S protein-mediated cell-cell fusion; type: cell-based; details: 30, 10, 3, 1 μM; 48 h
[6] = tested on: VSV-Gpp; type: cell-based, vesicular stomatitis virus
[7] = tested on: SARS-CoV-2 S protein-mediated cell-cell fusion; type: cell-based; details: 30 μM; 48 h
[8] = target: recombinant SARS-CoV-2 S1-S2 protein (Severe acute respiratory syndrome coronavirus 2, UniProt P0DTC2); type: binding
[9] = tested on: wild-type SARS-CoV-2 (2019-nCoV/USA-WA1/2020 strain); type: cell-based
[10] = tested on: SARS-CoV-2-NLuc; assay: microbe, parasite or virus in culture; type: cell-based; details: Severe acute respiratory syndrome coronavirus 2, Vero C1008
[11] = tested on: icSARS-CoV-2-mNeonGreen; type: cell-based, SARS-CoV-2
[12] = tested on: SARS2-Spp; type: cell-based, SARS-CoV-2
[13] = tested on: SARS2-Spp binding to Huh7 cells; type: cell-based, SARS-CoV-2
[14] = tested on: 293ACE2 cells
[15] = tested on: MA104 cells

Row | Compound | CC50 [1] [µM] | CC50 [2] [µM] | CC50 [4] [µM] | inhibition of donor-recipient fusion events (SmBit-LgBit) [5] | inhibition of VSV-Gpp entry [6] | inhibition of fusion (GFP-RFP colocalization) [7] | suppression of viral RNA levels [9] | inhibition when present at early entry time points [12] | inhibition when present during binding [12] | effect on viral binding to cells [13] | also measured
1 | CN1CCN([C@@H](c2ccccc2)c2ccc(Cl)cc2)CC1 [(S)-CCZ, (S)-chlorcyclizine] | 36.2 | > 100 | > 30 | inhibited | no inhibition | showed inhibition |  |  |  |  | CC50 ([3]; human): 41.7 µM
2 | O=C(CCCCC1SCC2NC(=O)NC21)NCCOCCOCCN1CCN(C(c2ccc(Cl)cc2)c2ccc(C3(C(F)(F)F)N=N3)cc2)CC1 (centres unmarked) [CCZ-DB] |  |  |  |  |  |  |  |  |  |  | binding to recombinant S1-S2 protein by cross-linking ([8]; 10 µM probe, UV irradiation, Neutravidin pull-down, anti-S2 blot): direct binding
3 | CN(C)C(=O)COC(=O)Cc1ccc(OC(=O)c2ccc(NC(=N)N)cc2)cc1 [Camostat, camostat] | > 100 | > 100 | > 100 | did not suppress |  | did not decrease |  |  |  |  | 
4 | CCN(CC)CCCC(C)Nc1ccnc2cc(Cl)ccc12 (centres unmarked) [Chloroquine, chloroquine] | > 100 | > 100 | > 30 |  | strong inhibition |  |  |  |  |  | CC50 ([3]; human): 37.5 µM
5 | CCN1CCN(C(c2ccc(Cl)cc2)c2ccc(Cl)cc2)CC1 [Dichlorcyclizine, dichlorcyclizine] | > 100 | > 100 |  | potent inhibition | no inhibition | strong inhibition | up to 2 log | potent inhibition | minimal inhibition | little or no effect | EC50 [10]: 4.99 µM; EC50 [11]: single-digit micromolar range; competition of probe cross-linking to the spike protein ([8]; 30-fold excess over CCZ-DB): could outcompete
6 | CCOC(=O)[C@H]1O[C@@H]1C(=O)N[C@@H](CC(C)C)C(=O)NCCC(C)C [E-64d] |  |  |  | did not suppress |  | did not decrease |  | displayed inhibition | displayed inhibition | little or no effect | CC50 [3]: > 100 µM; inhibition when present at middle entry time point [12]: displayed inhibition; CC50 [14]: > 100 µM; CC50 [15]: > 100 µM
7 | Cc1cc(-c2nc(CN3CCC(C(=O)NCCCN4C[C@H](C)C[C@H](C)C4)CC3)co2)ccc1F [Fluoxazolevir, fluoxazolevir] | > 100 | > 100 | 32.7 | inhibited | minimal | showed inhibition | up to 2 log | potent inhibition | minimal inhibition | little or no effect | EC50 [10]: 1.96 µM; EC50 [11]: single-digit micromolar range
8 | CCC(CC)COC(=O)[C@H](C)N[P@](=O)(OC[C@H]1O[C@@](C#N)(c2ccc3c(N)ncnn23)[C@H](O)[C@@H]1O)Oc1ccccc1 [remdesivir] |  |  |  |  |  |  | up to 3 log |  |  |  | 
9 | Heparan sulfate |  |  |  |  |  |  |  |  |  | significantly inhibited | 

Source: article PMC8749431 (mBio, 2022)
